This is an account of results in paper PMC3797739, “Identification of Semicarbazones, Thiosemicarbazones and Triazine Nitriles as Inhibitors of Leishmania mexicana Cysteine Protease CPB” (PLoS ONE, 2013).

In test [1] the target is L. mexicana CPB2.8∆CTE (Leishmania mexicana, UniProt P36400). The test can be described thus: CPB2.8∆CTE fluorescence endpoint assay with Z-F-R-AMC substrate. The class given is biochemical. Here is the method:
(§1) The activities of CPB2.8∆CTE and BtCatB were measured in a homogeneous fluorescence endpoint assay using Z-F-R-AMC as substrate, modified from published methods. The fluorophore AMC (7-amino-4-methylcoumarin) is released by active cysteine protease, and can be detected at 360 nm excitation and 465 nm emission. The assay was optimized for automated high throughput screening on a Biomek FX workstation (Beckman Coulter). All assays were carried out in black 384 well plates at room temperature (22°C). Each plate contained 24 controls in the 23rd and 24th rows of the plate, including 8 positive controls and 8 blanks (without enzyme) as well as 8 inhibitor controls. E-64 was used as standard inhibitor. […] Test compounds available as 10 mM stock solutions in DMSO were diluted further in DMSO, except for the last 1:10 step, which was done in H2O to lower the DMSO concentration in the assay. Final concentrations of the test compounds from 30 µM to 0.3 nM were used. For the L. mexicana CPB2.8∆CTE assay, 5 µl test compound or 5 µl DMSO in acetate buffer (10% DMSO) was added to each well of the microtiter plate. Subsequently, 25 µl of a premix containing sodium acetate buffer (final concentration [f.c.] 100 mM), titriplex II (f.c. 1 mM) (Merck, Darmstadt, Germany), DTT (f.c. 10 mM) (Carl Roth GmbH, Karlsruhe, Germany), triton (f.c. 0.01%) (Merck, Darmstadt, Germany), BSA (f.c. 0.1 mg/ml) (PAA Laboratories GmbH, Pasching, Austria) and enzyme was added to each well, except the wells for the blanks, which include the premix without enzyme. After an incubation time of 10 min, the reaction was started by addition of substrate (20 µl Z-F-R-AMC; f.c. 20 µM). The reaction was stopped after 35 min incubation at room temperature by addition of 10 µl inhibitor E64 (f.c. 16.7 µM) and enzyme activity was measured with a SpectraFluorPlus (Tecan Inc., Durham, NC) plate reader using excitation at 360 nm with emission at 465 nm. The assay procedure for BtCatB was the same as for the CPB2.8∆CTE assay with the exceptions of the final concentration of the substrate Z-F-R-AMC (100 µM) and the stop of the assay using a stop buffer containing sodium acetate and sodium chlorine acetate (f.c. 41.7 mM each).
(§2) The percentage enzyme activity was calculated using the formula (V-B)/(C-B) x 100%, with V being the absorbance of the assay containing the test compound, B being the absorbance of the negative control (‘blank’) and C being the absorbance of the positive control. In primary screening, all compounds of the screening library were tested at 10 µM in double point measurements. Z´ factors, which describe the quality of an assay, were in the range of 0.85-0.99. The Z´ factor is defined in terms of four parameters: the means and standard deviations of both the positive (p) and negative (n) controls: Z´= 1-((3 x (STDEVp + STDEVn))/(MEANp - MEANn)).
(§3) The theoretical hit limit for a HTS primary screen can be calculated as MEAN + 3 x STDEV of inhibitions from diverse compounds. […] In our case, based on a preliminary screen of >3000 diverse compounds, the hit limit was determined between 12.8% and 22.9% inhibition. For practical reasons, screening hit limits are normally set above this limit, aiming at approximately 0.2-0.4% hits from a diverse library. Therefore, 50% inhibition at 10 µM compound concentration compared to the positive controls was considered a hit compound and were subjected to hit verification (IC50 determination from liquid compound stock) using CPB2.8∆CTE and BtCatB to get the activity profile of the compounds. Hit confirmation (IC50 determination from freshly dissolved solid compound stock) was performed for all compounds with an IC50 ≤ 30 µM on CPB2.8∆CTE. Compound concentrations used for IC50 determinations were as follows: 30 µM, 10 µM, 3 µM, 1 µM, 0.3 µM, 0.1 µM, 0.03 µM, 0.01 µM, 0.003 µM, 0.001 µM, and 0.0003 µM. […]

Test [2] has as its system L. mexicana CPB2.8∆CTE. The description is as above. The format is biochemical, Leishmania mexicana. The note with it: ratio of IC50 on CPB2.8∆CTE to IC50 on BtCatB. The protocol:
as §1, §2, §3

The target of test [3] is T1, bovine cathepsin B (BtCatB) (Bos taurus, UniProt P07688).
T1 construct: purchased Sigma-Aldrich Inc., St. Louis, MO, USA; host or cells: bovine spleen
The test can be described thus: BtCatB counter assay, fluorescence endpoint with Z-F-R-AMC substrate. The note with it: mean ± SD, three independent experiments, substrate Z-F-R-AMC 100 µM. The format is biochemical. The protocol: The activities of CPB2.8∆CTE and BtCatB were measured in a homogeneous fluorescence endpoint assay using Z-F-R-AMC as substrate, modified from published methods. The fluorophore AMC (7-amino-4-methylcoumarin) is released by active cysteine protease, and can be detected at 360 nm excitation and 465 nm emission. The assay was optimized for automated high throughput screening on a Biomek FX workstation (Beckman Coulter). All assays were carried out in black 384 well plates at room temperature (22°C). Each plate contained 24 controls in the 23rd and 24th rows of the plate, including 8 positive controls and 8 blanks (without enzyme) as well as 8 inhibitor controls. E-64 was used as standard inhibitor. […] Test compounds available as 10 mM stock solutions in DMSO were diluted further in DMSO, except for the last 1:10 step, which was done in H2O to lower the DMSO concentration in the assay. Final concentrations of the test compounds from 30 µM to 0.3 nM were used. For the L. mexicana CPB2.8∆CTE assay, 5 µl test compound or 5 µl DMSO in acetate buffer (10% DMSO) was added to each well of the microtiter plate. […] The reaction was stopped after 35 min incubation at room temperature by addition of 10 µl inhibitor E64 (f.c. 16.7 µM) and enzyme activity was measured with a SpectraFluorPlus (Tecan Inc., Durham, NC) plate reader using excitation at 360 nm with emission at 465 nm. […]
The percentage enzyme activity was calculated using the formula (V-B)/(C-B) x 100%, with V being the absorbance of the assay containing the test compound, B being the absorbance of the negative control (‘blank’) and C being the absorbance of the positive control. […]
The theoretical hit limit for a HTS primary screen can be calculated as MEAN + 3 x STDEV of inhibitions from diverse compounds. […]

Structures are written as SMILES. Some results are limits rather than exact numbers.

Sequence of L. mexicana CPB2.8∆CTE (Leishmania mexicana, UniProt P36400) (P36400 126-343): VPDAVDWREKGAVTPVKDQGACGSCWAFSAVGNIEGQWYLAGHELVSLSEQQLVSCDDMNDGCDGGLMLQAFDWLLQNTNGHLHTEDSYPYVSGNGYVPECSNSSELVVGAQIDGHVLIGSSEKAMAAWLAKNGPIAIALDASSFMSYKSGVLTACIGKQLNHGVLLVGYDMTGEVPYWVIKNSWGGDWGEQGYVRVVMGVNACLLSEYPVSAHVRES

As to `NC(=O)N/N=c1\oc2ccccc2cc1-c1nc2ccccc2[nH]1` [CP229988, 3-[(1H-benzimidazol-2-yl)-2H-1-benzopyran-2-ylidene]-2-carbaldehyde semicarbazone], the IC50 at L. mexicana CPB2.8∆CTE [1] is 10 ± 3 nM; in test [3] it was > 30000 nM. The Ki at L. mexicana CPB2.8∆CTE [1] came to 5 ± 2 nM. In addition, in the test with L. mexicana CPB2.8∆CTE [2], the “selectivity ratio (CPB2.8∆CTE/BtCatB)” value is < 0.00033.

Regarding `COc1ccc(-c2ccc(/C=N/NC(N)=S)o2)cc1` [CP247129, 5-(4-methoxy-phenyl)-2-furanyl-2-carbaldehyde thiosemicarbazone], the half-inhibitory concentration (IC50) was 70 ± 40 nM against L. mexicana CPB2.8∆CTE [1] and > 30000 nM in test [3]. Further, the Ki at L. mexicana CPB2.8∆CTE [1] was 40 ± 20 nM.

The compound `NC(=S)NN=Cc1c(-c2ccccc2)[nH]c2ccccc12` [CP247128, 2-phenyl-1H-indole-3-carbaldehyde thiosemicarbazone] gave an IC50 on L. mexicana CPB2.8∆CTE [1] of 60 ± 10 nM.

On L. mexicana CPB2.8∆CTE [1], `COc1ncccc1Nc1nc(C#N)nc(NC2CCCCC2)n1` [CP241026, 4-(cyclohexylamino)-6-[(2-methoxy-3-pyridinyl)amino]-1,3,5-triazine-2-carbonitrile] had a half-inhibitory concentration (IC50) of 1100 ± 150 nM and a Ki of 570 ± 80 nM. Half-maximal inhibition in test [3] (IC50) was put at 13800 ± 4500 nM.

In the case of `CC(C)C[C@H](NC(=O)[C@H]1O[C@@H]1C(=O)O)C(=O)NCCCCNC(=N)N` (relative stereo) [Compound E-64, 1-[N-[(L-3-trans-carboxyoxirane-2-carbonyl)-L-leucyl]amino]-4-guanidinobutane, reference compound], the “inhibition of protease activity” value against L. mexicana CPB2.8∆CTE [1] (final concentration 10 µM, standard inhibitor control of the CPB2.8∆CTE and BtCatB assays) was “complete inhibition”.
